This assay concerns the target recombinant human CCR5 receptor (Homo sapiens, UniProt P51681). The assay can be described thus: MIP-1α radioligand binding assay (scintillation proximity), CHO cell membranes. The note with it: displacement of 0.1 nM iodinated MIP-1α, CHO membranes with recombinant human CCR5, average if tested more than once. The procedure:
The ability of compounds to inhibit the binding of MIP-1 α was assessed by an in vitro radioligand binding assay. Membranes were prepared from Chinese hamster ovary cells which expressed the recombinant human CCR5 receptor. These membranes were incubated with 0.1 nM iodinated MIP-1α, scintillation proximity beads and various concentrations of the compounds of the invention in 96-well plates. The amount of iodinated MIP-1α bound to the receptor was determined by scintillation counting.
In Table II the results are presented as Pic50 values. […] (that is 1×10^−6 M) gives a Pic50 of 6.
(In general: In a scintillation proximity assay essentially only radioactivity close to the scintillant gives light.)

[1] abbreviates: Pic50, negative log (base 10) of IC50 (M).
[2] abbreviates: negative log (base 10) of IC50 (M), read-out: Pic50 (converted).

Structures can show the parent of a compound that is named as a salt. Where two headings read alike, the source gives them in different places.

Sequence of recombinant human CCR5 receptor (P51681 whole entry): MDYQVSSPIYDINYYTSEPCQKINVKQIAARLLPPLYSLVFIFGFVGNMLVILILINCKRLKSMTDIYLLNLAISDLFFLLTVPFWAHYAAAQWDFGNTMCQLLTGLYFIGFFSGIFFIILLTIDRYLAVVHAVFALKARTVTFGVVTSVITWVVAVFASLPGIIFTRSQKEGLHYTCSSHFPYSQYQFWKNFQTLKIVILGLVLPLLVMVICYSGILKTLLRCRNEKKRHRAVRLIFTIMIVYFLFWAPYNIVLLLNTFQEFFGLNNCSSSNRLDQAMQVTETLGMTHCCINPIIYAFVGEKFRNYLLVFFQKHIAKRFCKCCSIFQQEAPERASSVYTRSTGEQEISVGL

For `CCN(C(=O)Cc1ccc(S(C)(=O)=O)cc1)C1CCN(CC[C@H](c2ccc(S(C)(=O)=O)cc2)c2ccc(F)c(F)c2)CC1` [Compound No. 54, (R)-N-[1-{3-(3,4-fluorophenyl)-3-(4-methanesulfonylphenyl)propyl}-4-piperidinyl]-N-ethyl-4-methanesulfonylphenylacetamide hydrochloride], the IC50 under setting [1] was 2.14e-08 M. As to `CCN(C(=O)Cc1ccc(S(C)(=O)=O)cc1)C1CCN(CCC(c2ccc(N)cc2)c2cccc(F)c2)CC1` (stereo not shown) [Compound No. 44, N-[1-(3-[3-fluorophenyl]-3-[4-aminophenyl]propyl)-piperidin-4-yl]-N-ethyl-4-methanesulfonylphenylacetamide hydrochloride], under setting [2], the IC50 was 1.05e-07 M. Still for that read-out and setting: to `CCN(C(=O)Cc1ccc(S(C)(=O)=O)cc1)C1CCN(CCC(c2ccc(NC(C)=O)cc2)c2cccc(F)c2)CC1` (stereo not shown) [compound 45] belongs 3.63e-09 M. Still for that read-out and setting: as for `CCN(C(=O)Cc1ccc(S(C)(=O)=O)cc1)C1CCN(CCC(c2ccccc2)c2ccc(NC(=O)NC(C)C)cc2)CC1` (stereo not shown) [compound 42], the figure is 1.32e-08 M. For `CCN(C(=O)Cc1ccc(S(C)(=O)=O)cc1)C1CCN(CCC(c2ccc(NC(=O)OC(C)(C)C)cc2)c2cccc(F)c2)CC1` (stereo not shown) [Compound No. 43, N-[1-(3-[3-fluorophenyl]-3-[4-Boc-aminophenyl]propyl)-piperidin-4-yl]-N-ethyl-4-methanesulfonylphenylacetamide], the Pic50 (negative log (base 10) of IC50 (M)) amounted to 7.05. Turning to `CCN(C(=O)Cc1ccc(S(C)(=O)=O)cc1)C1CCN(CCC(c2ccccc2)c2ccc(SC)cc2)CC1` (stereo not shown) [Compound No. 41, N-[1-(3-phenyl-3-[4-methanethiophenyl]propyl)-piperidin-4-yl]-N-ethyl-4-methanesulfonylphenylacetamide], the IC50 under setting [2] was 1.17e-08 M. Still for that read-out and setting: to `CCN(C(=O)Cc1ccc(S(C)(=O)=O)cc1)C1CCN(CCC(c2ccc(NC(=O)c3ccc(S(C)(=O)=O)cc3)cc2)c2cccc(F)c2)CC1` (stereo not shown) [compound 47] belongs 3.47e-08 M. For `CCN(C(=O)Cc1ccc(S(C)(=O)=O)cc1)C1CCN(CC[C@H](c2ccc(S(C)(=O)=O)cc2)c2cccc(F)c2)CC1` [compound 51], the IC50 under setting [1] is 3.72e-10 M.

Take `CCN(C(=O)Cc1ccc(S(C)(=O)=O)cc1)C1CCN(CCC(c2ccc(NS(C)(=O)=O)cc2)c2cccc(F)c2)CC1` (stereo not shown) [compound 46]: the IC50 under setting [2] was 9.12e-09 M. As for `CCN(C(=O)Cc1ccc(S(C)(=O)=O)cc1)C1CCN(CCC(c2ccccc2)c2ccc(NS(=O)(=O)c3ccccc3)cc2)CC1` (stereo not shown) [compound 28], under setting [2], the IC50 was 8.51e-07 M.

For `CCN(C(=O)Cc1ccc(S(C)(=O)=O)cc1)C1CCN(CC[C@@H](c2ccccc2)c2ccc(S(C)(=O)=O)cc2)CC1` [Compound No. 50, (S)-N-[1-{3-phenyl-3-(4-methanesulfonylphenyl)propyl}-4-piperidinyl]-N-ethyl-4 methanesulfonylphenylacetamide], the IC50 under setting [1] is 8.13e-10 M.

`CCN(C(=O)Cc1ccc(S(C)(=O)=O)cc1)C1CCN(CCC(c2ccccc2)c2ccc([S+](C)[O-])cc2)CC1` (stereo not shown) [compound 75]: under setting [2], the IC50 was 1.38e-08 M. On the same count and under the same terms, to `CCN(C(=O)Cc1ccc(S(C)(=O)=O)cc1)C1CCN(CCC(c2ccc(NS(C)(=O)=O)cc2)c2cccc(F)c2)CC1` (stereo not shown) [Compound No. 49] belongs 6.17e-09 M.

(Values after patent publication US20050014788A1, “Piperidine derivatives and their use as modulators of chemokine receptor activity (especially ccr5)” (priority 2001, published 2005).)
